Assay results reported in patent US20200087248A1, “Fluoroallylamine Derivative And Use Thereof” (SICHUAN KELUN-BIOTECH BIOPHARMACEUTICAL CO., LTD., priority 2017, published 2020).
Structures can show the parent of a compound that is named as a salt. Where two headings read alike, the source gives them in different places.

Key:
[1] = biological target: T1, VAP-1 in abdominal fat of mice (Mus musculus, UniProt O70423); experiment: Inhibition of VAP-1 enzymatic activity at different dose and time conditions (ex-vivo); format: in vivo, BALBc mice; settings: for Inhibition rate against the enzymatic activity of VAP-1 in abdominal fat of mice: hydrochloride; for inhibition at 0.5 mg/kg / inhibition at 3 mg/kg: mouse, po, read-out: Inhibition rate against the enzymatic activity of VAP-1 in abdominal fat of mice
T1 construct: abdominal fat was collected and homogenized; from tissue; host or cells: abdominal fat of BALBc mice (homogenate supernatant)
T1 sequence (O70423 1-765): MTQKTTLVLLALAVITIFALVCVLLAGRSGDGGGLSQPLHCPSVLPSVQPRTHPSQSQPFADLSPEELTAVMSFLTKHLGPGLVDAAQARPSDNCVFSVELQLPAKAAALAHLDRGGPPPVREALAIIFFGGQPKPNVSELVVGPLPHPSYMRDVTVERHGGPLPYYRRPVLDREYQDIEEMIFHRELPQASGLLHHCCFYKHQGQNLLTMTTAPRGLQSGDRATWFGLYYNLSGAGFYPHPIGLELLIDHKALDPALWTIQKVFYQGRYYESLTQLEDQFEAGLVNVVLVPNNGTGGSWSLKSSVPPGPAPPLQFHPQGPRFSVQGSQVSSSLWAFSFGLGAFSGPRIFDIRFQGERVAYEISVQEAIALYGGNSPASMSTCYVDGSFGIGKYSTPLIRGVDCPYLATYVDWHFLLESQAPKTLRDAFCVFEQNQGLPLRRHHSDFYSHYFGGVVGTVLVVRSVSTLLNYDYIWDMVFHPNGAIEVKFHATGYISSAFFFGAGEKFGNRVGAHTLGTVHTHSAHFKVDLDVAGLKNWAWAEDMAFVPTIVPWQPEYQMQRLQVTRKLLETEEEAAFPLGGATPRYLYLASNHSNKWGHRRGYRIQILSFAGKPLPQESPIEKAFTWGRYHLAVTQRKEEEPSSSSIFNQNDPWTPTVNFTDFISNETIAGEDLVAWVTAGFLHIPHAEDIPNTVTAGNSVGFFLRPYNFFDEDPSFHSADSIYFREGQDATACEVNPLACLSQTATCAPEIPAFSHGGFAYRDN
Experimental: Inhibition Experiment Against the Enzymatic Activity at Different Does and Time Conditions (ex-vivo)
Tissue homogenate buffer solution (20 mM HEPES, pH 7.2, 1 mM EDTA, 250 mM sucrose, PMSF 0.2 mM)
Reaction buffer solution: 50 mM PBS, pH 7.4
Test kit: Amplex® Red Monoamine Oxidase Assay, Manufacturer: ThermoFisher
BALBc mice were orally administrated with different doses (0.5 mg/kg, 3 mg/kg) of the test compound, and the vehicle group was used as the control group. Abdominal fat was collected at 6 hrs, 10 hrs, 24 hrs respectively, and homogenized with a pre-cooled homogenate buffer solution, and thereafter, the supernatant was collected and stored for use.
A test sample was diluted with the reaction buffer solution, and respectively added with the inhibition solution A 1 μM Clorgyline+1 μM pargylin, to inhibit the activities of MAO-A and MAO-B, and the inhibition solution B: 1 μM Clorgyline+1 μM Pargylin+1 μM Mofegiline as the Wank control, and after being incubated at room temperature, 500 μM benzylamine hydrochloride, 1 U/mL HRP and 200 μM Amplex Red reagent were added to start the reaction. By referring to the method in “Experiment of inhibiting the enzymatic activity of VAP-1”, the relative activities of each dose groups were calculated, wherein ratio of the fluorescent signal to reaction time in the linear range is the reaction rate, and the vehicle group is the positive control, thereby to study the inhibition of the compound against the enzymatic activity of VAP-1 in abdominal fat of mice.

[2] = Stability in liver microsomes, human; format: in vitro ADME
Experimental: (§1) Stability of Liver Microsomes
(§2) Formulation of a compound reservation solution: the test compound, diclofenac acid, testosterone and propafenone were weighted in appropriate amounts, and calibrated by adding about 1 mL of DMSO to provide a 10 mM reservation solution, then stored in a 4° C. refrigerator;
(§3) Formulation of a compound working solution: 10 μL of the reservation solution were added to 990 μL acetonitrile-water (1:1) to provide a middle solution having a concentration of 100 μM, and 120 μL of the middle solution is further diluted with 2880 μL PBS to provide a 4 μM working solution; […]
(§4) After being incubated for a certain period of time, an equivalent volume of cooled acetonitrile (4° C.) was added to terminate the reaction, and LC-MS/MS was used to determine the concentrations of the compound after being incubated in various liver microsomes for different time periods. With the incubation time as the horizontal ordinate and the natural logarithm of the percentages of the remained compound at each time point as the longitudinal coordinate, a diagram was plotted, wherein the slope was the velocity constant (Ke), and the half-life (T1/2) and clearance rate (CLliver) of the compound were calculated according to the following equation to evaluate the staiblity of the compound in the liver microsomes. […]

[3] = Stability in liver microsomes, monkey; format: in vitro ADME
Experimental: as §1, §2, §3, §4

[4] = Stability in liver microsomes, dog; format: in vitro ADME
Experimental: as §1, §2, §3, §4

[5] = Stability in liver microsomes, rat; format: in vitro ADME
Experimental: as §1, §2, §3, §4

[6] = Stability in liver microsomes, mouse; format: in vitro ADME
Experimental: as §1, §2, §3, §4

Rat PK experiment = format: in vivo, Male rats; settings: male; for AUC(0-inf) / Cmax / half-life: rat blood plasma
Experimental: Male rats were intravenously (iv) and intragastrically (po) administered the test compounds respectively, and LC-MS/MS was used to measure the blood plasma concentration of the compound in the bodies of the rat. The main pharmacokinetic parameters were calculated by utilizing WinNonlin 6.3 software.

Inhibition rate against the enzymatic activity of VAP-1 in abdominal fat of mice ([1]; 0.5 mg/kg oral, 6 hours): 95.8 ± 3.6% | Inhibition rate against the enzymatic activity of VAP-1 in abdominal fat of mice ([1]; 3.0 mg/kg oral, 10 hours): 95.3 ± 1.9% | inhibition at 0.5 mg/kg ([1]; 0.5 mg/kg oral, 6 hours): ~95% | inhibition at 0.5 mg/kg ([1]; 0.5 mg/kg oral, 10 hours): 90.3 ± 3.2% | inhibition at 0.5 mg/kg ([1]; 0.5 mg/kg oral, 24 hours): 68.1 ± 7.4% | inhibition at 3 mg/kg ([1]; 3.0 mg/kg oral, 6 hours): 96.4 ± 5.6% | inhibition at 3 mg/kg ([1]; 3.0 mg/kg oral, 10 hours): ~95% | inhibition at 3 mg/kg ([1]; 3.0 mg/kg oral, 24 hours): 78 ± 9.3% | T1/2 in liver microsomes [2]: long half-life | half-life ([2]; liver microsomes, read-out: T1/2 in liver microsomes): 44.6 h | T1/2 in liver microsomes ([3]; Monkey): long half-life | half-life ([3]; monkey, liver microsomes, read-out: T1/2 in liver microsomes): 20.8 h | T1/2 in liver microsomes ([4]; Dog): long half-life | half-life ([4]; dog, liver microsomes, read-out: T1/2 in liver microsomes): 118 h | T1/2 in liver microsomes ([5]; Rat): long half-life | half-life ([5]; rat, liver microsomes, read-out: T1/2 in liver microsomes): 14.2 h | T1/2 in liver microsomes ([6]; Mouse): long half-life | half-life ([6]; mouse, liver microsomes, read-out: T1/2 in liver microsomes): 13.8 h | bioavailability (Rat PK experiment; plasma, rat, po 3 mg/kg): 89.9% | AUC(0-inf) (Rat PK experiment; iv 3 mg/kg): 1160 ± 120 ng·h/mL | Cmax (Rat PK experiment; iv 3 mg/kg): 1040 ± 181 ng/mL | half-life (Rat PK experiment; iv 3 mg/kg): 1.43 ± 0.15 h | AUC(0-inf) (Rat PK experiment; po 3 mg/kg): 1040 ± 129 ng·h/mL | Cmax (Rat PK experiment; po 3 mg/kg): 343 ± 24 ng/mL | half-life (Rat PK experiment; po 3 mg/kg): 1.37 ± 0.01 h
Compound: CC1(C)Cc2cc(OC/C(=C/F)CN)ccc2C(=O)N1 [HC38-E, (E)-6-((2-(aminomethyl)-3-fluoroallyl)oxy)-3,3-dimethyl-3,4-dihydroisoquinolin-1(2H)-one hydrochloride]
